“Also recorded” adds a separate entry of the source.
How the values were obtained:
[1] = mouse, in vivo, sc, 10 mg/kg
Procedure: Concentrations are shown as recorded 3 h following administration.
Each group contained 4 mice.

[2] = mouse, in vivo, sc, 10 mg/kg; remark: listed apart in the source
Procedure: Again, a single subcutaneous injection was used in mice. The administered dose was 10 mg/Kg.

[3] = system: angiogenesis induced by bFGF, VEGF, HGF; experiment: Anti-angiogenic effect in CAM Models in the presence of growth factors; type: in vivo
Source text: In addition to good initial uptake, the disclosed compounds also have good anti-angiogenic effect. […] Specifically, Compound 2 is effective at reducing the percentage of angiogenesis present in CAM Models, when administered in the presence of the following growth factors: bFGF, VEGF, VEGF+bFGF, and bFGF+VEGF+HGF.
This broad spectrum anti-angiogenic effect is in contrast to existing therapeutic compounds/compositions such as AVASTIN® (bevacizumab).

[4] = cynomolgus monkey, in vivo, sc, 15 mg/kg
U87-luc xenografts = experiment: GBM xenograft efficacy: tumor weight and luminescent signal intensity; type: in vivo, Nude mice; conditions: for Tumor weight after 3 weeks of treatment: control approximately 600 mg; for Luminescent signal intensity after 3 weeks of treatment: control approximately 600,000p/s
Procedure: The efficacy of these compounds/compositions with respect to GBM tumors will now be described with reference to FIGS. 30-33. The study protocol is as follows: Nude mice having U87-luc xenografts were treated with varying dosages of Compound 2 (fb-PMT) for 3 weeks. Efficacy was determined by tumor weight and luminescent signal intensity compared with a control group. Further, treatment efficacy was also evaluated in comparison with known potential treatment Cilengitide. Efficacy was also determined again after an additional 3 week period with no additional treatment.

[5] = Compound 2 6 mg/kg, Cilengitide 75 mg/kg
[6] = Compound 2 6 mg/kg, Cilengitide 75 mg/kg, control approximately 750 mg
[7] = Compound 2 6 mg/kg, Cilengitide 75 mg/kg, control over 800,000p/s

Compound	Average Brain Concentration (ng/g), 3 hour [1] [ng/g]	Tumor weight after 3 weeks of treatment (U87-luc xenografts; [5])	Tumor weight after 3 weeks of treatment followed by 3 weeks without treatment (U87-luc xenografts; [6])	Luminescent signal intensity after 3 weeks of treatment (U87-luc xenografts; [5])	Luminescent signal intensity after 3 weeks of treatment followed by 3 weeks without treatment (U87-luc xenografts; [7])	other results
di-tbutylbenzyl conjugated to triazole tetrac by polyethylene glycol [Compound 4]	922	–	–	–	–	–
fluorobenzyl conjugated to triazole tetrac by polyethylene glycol [Compound 2]	228	under 50 mg	further reduction	negligible levels	even further reduction	Brain tissue uptake and retention over time [2]: uptake and retention over a 24 hour period; Percentage of angiogenesis in CAM Model ([3]; 1.0 μg, growth factors bFGF, VEGF, VEGF+bFGF, bFGF+VEGF+HGF): only slightly above baseline; also recorded: inhibition of angiogenesis against all three growth factors, both alone and in combination; Time of plasma concentration peak [4]: 1 to 4 h; Tumor weight after 3 weeks of treatment (U87-luc xenografts; all doses 1, 3, 6 and 10 mg/kg): under 100 mg; Tumor weight after 3 weeks of treatment followed by 3 weeks off treatment (U87-luc xenografts; all doses 1, 3, 6 and 10 mg/kg, control approximately 750 mg): further and additional reduction; Luminescent signal intensity after 3 weeks of treatment (U87-luc xenografts; all doses 1, 3, 6 and 10 mg/kg): under 100,000 p/s; Luminescent signal intensity after 3 weeks of treatment followed by 3 weeks off treatment (U87-luc xenografts; all doses 1, 3, 6 and 10 mg/kg, control over 800,000p/s): further and additional reduction
CC(C)[C@H]1C(=O)N[C@@H](CCCN=C(N)N)C(=O)NCC(=O)N[C@@H](CC(=O)O)C(=O)N[C@H](Cc2ccccc2)C(=O)N1C [Cilengitide, reference compound]	–	approximately 300 mg	over 400 mg	approximately 300,000 p/s	over 500,000 p/s	–
bevacizumab [AVASTIN®]	–	–	–	–	–	Anti-angiogenic effect in CAM Model against VEGF alone ([3]; VEGF alone): primarily effective against VEGF alone; Percent of angiogenesis in CAM Model for bFGF or HGF ([3]; bFGF or HGF): does not meaningfully reduce; Anti-angiogenic effect in CAM Model, VEGF combined with other growth factors ([3]; bFGF or bFGF and HGF present along with VEGF): does not demonstrate good effect

Source: US11186551B2, “Composition of scalable thyrointegrin antagonists with improved retention in tumors” (NanoPharmaceuticals, LLC, priority 2020, dated 2021)
